In publication PMC4306520 (Journal of Medicinal Chemistry, 2014):

Experiments:
FASN = assay: Western blot of FASN expression; assay type: cell-based, human
[1] = system: PANC-1/FASN and PANC-1/Vec cells; assay: Colony formation survival assay, PANC-1/FASN vs PANC-1/Vec; assay type: cell-based, human
BxPC-3 cells [2] = assay: MTT assay with palmitate supplementation; assay type: cell-based, human
BxPC-3 cells [3] = assay: Extracellular pH; assay type: cell-based, human; conditions: BxPC-3, 100 μM, 72 h, data not shown
BxPC-3 cells [4] = assay: Apoptosis assay; assay type: cell-based, human
BxPC-3 cells [5] = assay: Intracellular pH; assay type: cell-based, human; conditions: BxPC-3, different concentrations, 72 h
[6] = system: other Ser hydrolases in PANC-1 cell lysate; assay: Serine hydrolase FP probe displacement assay, other serine hydrolases; assay type: binding, human; conditions: 5 μM FP probe
[7] = biological target: FASN in PANC-1 cell lysate (Homo sapiens, UniProt P49327); assay: Serine hydrolase FP probe displacement assay, FASN; assay type: binding; conditions: 5 μM FP probe
Chain of FASN in PANC-1 cell lysate (P49327 whole entry): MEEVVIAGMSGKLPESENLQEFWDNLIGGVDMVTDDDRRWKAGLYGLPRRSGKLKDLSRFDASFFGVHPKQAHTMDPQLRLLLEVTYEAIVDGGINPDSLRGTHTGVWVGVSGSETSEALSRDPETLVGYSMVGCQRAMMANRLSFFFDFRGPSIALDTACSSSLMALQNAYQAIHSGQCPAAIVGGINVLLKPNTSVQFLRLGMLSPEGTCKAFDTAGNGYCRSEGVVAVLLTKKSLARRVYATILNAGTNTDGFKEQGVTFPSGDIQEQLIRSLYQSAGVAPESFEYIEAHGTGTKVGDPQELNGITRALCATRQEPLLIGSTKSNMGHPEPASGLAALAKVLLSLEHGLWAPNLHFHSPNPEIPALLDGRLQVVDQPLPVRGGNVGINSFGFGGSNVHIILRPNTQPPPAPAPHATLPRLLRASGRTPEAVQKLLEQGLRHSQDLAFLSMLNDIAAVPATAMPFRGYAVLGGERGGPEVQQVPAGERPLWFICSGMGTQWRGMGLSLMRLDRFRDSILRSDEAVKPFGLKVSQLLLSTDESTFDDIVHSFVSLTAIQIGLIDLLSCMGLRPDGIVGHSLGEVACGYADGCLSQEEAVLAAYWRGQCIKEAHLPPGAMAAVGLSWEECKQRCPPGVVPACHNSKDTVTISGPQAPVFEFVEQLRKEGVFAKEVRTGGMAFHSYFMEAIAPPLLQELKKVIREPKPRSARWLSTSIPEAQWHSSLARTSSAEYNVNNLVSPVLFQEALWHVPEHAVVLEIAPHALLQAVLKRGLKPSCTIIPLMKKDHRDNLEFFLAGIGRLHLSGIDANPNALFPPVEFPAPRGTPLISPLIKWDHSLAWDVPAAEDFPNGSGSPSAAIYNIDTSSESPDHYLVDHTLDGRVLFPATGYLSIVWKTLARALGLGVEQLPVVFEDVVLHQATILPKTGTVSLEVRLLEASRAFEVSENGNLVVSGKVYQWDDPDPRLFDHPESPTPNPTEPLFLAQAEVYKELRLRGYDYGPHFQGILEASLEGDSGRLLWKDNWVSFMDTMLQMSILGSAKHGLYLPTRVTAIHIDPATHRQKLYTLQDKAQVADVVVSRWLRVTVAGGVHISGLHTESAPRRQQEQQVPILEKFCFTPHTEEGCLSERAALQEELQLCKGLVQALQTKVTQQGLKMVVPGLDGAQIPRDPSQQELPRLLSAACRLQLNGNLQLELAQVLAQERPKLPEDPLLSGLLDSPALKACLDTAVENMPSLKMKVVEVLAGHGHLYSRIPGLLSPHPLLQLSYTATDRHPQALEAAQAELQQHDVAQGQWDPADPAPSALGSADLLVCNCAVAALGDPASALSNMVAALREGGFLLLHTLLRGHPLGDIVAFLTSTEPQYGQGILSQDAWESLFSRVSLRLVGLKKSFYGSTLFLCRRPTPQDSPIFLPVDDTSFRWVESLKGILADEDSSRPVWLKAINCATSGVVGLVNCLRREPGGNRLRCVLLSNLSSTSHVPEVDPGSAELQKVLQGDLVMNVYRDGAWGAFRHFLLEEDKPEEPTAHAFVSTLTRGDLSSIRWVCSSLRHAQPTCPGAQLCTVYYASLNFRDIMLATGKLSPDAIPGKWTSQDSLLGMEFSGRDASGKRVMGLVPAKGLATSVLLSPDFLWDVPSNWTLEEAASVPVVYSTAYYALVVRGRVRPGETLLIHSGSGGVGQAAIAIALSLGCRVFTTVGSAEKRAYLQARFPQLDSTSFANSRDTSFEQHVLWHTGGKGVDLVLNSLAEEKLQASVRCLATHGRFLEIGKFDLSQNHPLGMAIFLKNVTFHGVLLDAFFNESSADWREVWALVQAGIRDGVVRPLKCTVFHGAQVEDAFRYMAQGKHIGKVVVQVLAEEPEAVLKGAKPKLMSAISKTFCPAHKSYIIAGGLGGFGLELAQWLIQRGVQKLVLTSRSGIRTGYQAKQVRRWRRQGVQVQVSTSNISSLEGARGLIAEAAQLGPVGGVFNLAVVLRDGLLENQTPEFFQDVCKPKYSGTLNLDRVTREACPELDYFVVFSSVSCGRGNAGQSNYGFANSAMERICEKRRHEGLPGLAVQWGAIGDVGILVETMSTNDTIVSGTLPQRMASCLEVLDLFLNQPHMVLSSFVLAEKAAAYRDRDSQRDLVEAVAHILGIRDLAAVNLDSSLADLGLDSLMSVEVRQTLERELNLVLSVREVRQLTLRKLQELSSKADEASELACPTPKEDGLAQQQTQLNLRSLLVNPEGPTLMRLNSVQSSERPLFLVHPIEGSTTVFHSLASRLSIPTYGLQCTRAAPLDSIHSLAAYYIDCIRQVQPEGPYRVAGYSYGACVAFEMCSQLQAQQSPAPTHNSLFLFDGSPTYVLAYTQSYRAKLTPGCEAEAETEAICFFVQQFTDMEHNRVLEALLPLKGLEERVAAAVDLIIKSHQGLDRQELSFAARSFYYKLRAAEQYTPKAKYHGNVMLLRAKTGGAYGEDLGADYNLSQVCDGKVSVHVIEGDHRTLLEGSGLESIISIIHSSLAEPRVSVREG

| SMILES | effect on total FASN level (FASN; lansoprazole treatment, Figure 4D) | sensitivity of PANC-1/FASN cells versus PANC-1/Vec cells [1] | effect of palmitate supplementation on lansoprazole cytotoxicity (BxPC-3 cells [2]; 3.75 μM palmitate) | effect on extracellular pH (BxPC-3 cells [3]) | effect of palmitate supplementation on lansoprazole-induced apoptosis (BxPC-3 cells [4]; 3.75 μM palmitate) | induction of apoptosis (DNA fragments, cleaved PARP-1) (BxPC-3 cells [4]; ELISA 72 h, PARP Western blot 24 h) | effect on intracellular pH (BxPC-3 cells [5]) | effect on binding of FP probe to other Ser hydrolases [6] | inhibition of FP serine hydrolase probe labeling of FASN [7] | effect of palmitate on FASN expression (FASN; 3.75 μM palmitate, Figure 5B) | effect of palmitate alone on cell survival (BxPC-3 cells [2]; BxPC-3, 3.75 μM) |
| --- | --- | --- | --- | --- | --- | --- | --- | --- | --- | --- | --- |
| Cc1c(OCC(F)(F)F)ccnc1C[S+]([O-])c1nc2ccccc2[nH]1 (centres unmarked) [Lansoprazole] | no effect on the total FASN level | significantly more sensitive to lansoprazole than the control PANC-1/Vec cells | significantly increased cellular resistance to lansoprazole | no change in extracellular pH | reduced lansoprazole-induced apoptosis | dose-dependently caused formation of DNA fragments and cleaved PARP-1 | no significant effect on intracellular pH | no effect on the binding of the FP probe to other Ser hydrolases | inhibited labeling of FASN by the FP probe in a dose-dependent manner | – | – |
| CCCCCCCCCCCCCCCC(=O)O [palmitate] | – | – | – | – | – | – | – | – | – | did not reduce FASN expression | no significant effect on BxPC-3 cell survival |
